According to PubChem BioAssay (NCI):
“And” between values parts separate entries of the source, which are not always exact repeats. Equal entries are not always repeated.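 Briefly, cells in 96-well plates were exposed to five compound concentrations for 48 h, and endpoints were estimated by linear interpolation. GI50 = concentration required for 50% inhibition of growth. TGI denotes the concentration required for complete inhibition of growth.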 Starred links: 1 amine or outer side, 2 acyl side, 3 side chain; linkers in the order of their positions; H or OH if unused. Positions of bridges follow the written chain, without caps; N, C: chain ends. Non-standard residues stand in square brackets, D forms with d. Residues, ends and D or L forms follow the SMILES beside them. Chains are numbered I, II in the order given. Actinocin(9to1) = Cc1c2oc3c(C)ccc(C(=O)[*:1])c3nc-2c(C(=O)[*:2])c(N)c1=O; NMeY = CN[CH](Cc1ccc(O)cc1)C(=O)O; Sar = CNCC(=O)O

Experiments:
Assay in all cases: inhibition of tumour cell growth, NCI panel, 48 h
HOP-62 NSCLC = tested on: HOP-62 NSCLC
CAKI-1 renal = tested on: CAKI-1 renal
HCC-2998 colon = tested on: HCC-2998 colon
BT-549 breast = tested on: BT-549 breast
SF-295 CNS = tested on: SF-295 CNS
SK-MEL-2 melanoma = tested on: SK-MEL-2 melanoma
DU-145 prostate = tested on: DU-145 prostate
NCI-H23 lung = tested on: NCI-H23 lung
MDA-N = tested on: MDA-N
EKVX NSCLC = tested on: EKVX NSCLC
UACC-257 melanoma = tested on: UACC-257 melanoma

| SMILES | TGI (HOP-62 NSCLC) [µM] | TGI (CAKI-1 renal) [µM] | TGI (HCC-2998 colon) | TGI (BT-549 breast) | TGI (SF-295 CNS) [µM] | TGI (SK-MEL-2 melanoma) | TGI (DU-145 prostate) [µM] | TGI (NCI-H23 lung) | TGI (MDA-N) | TGI (EKVX NSCLC) [µM] | TGI (UACC-257 melanoma) | GI50 (HCC-2998 colon) | GI50 (SF-295 CNS) | GI50 (DU-145 prostate) | GI50 (NCI-H23 lung) | GI50 (MDA-N) | GI50 (EKVX NSCLC) | GI50 (UACC-257 melanoma) |
| --- | --- | --- | --- | --- | --- | --- | --- | --- | --- | --- | --- | --- | --- | --- | --- | --- | --- | --- |
| CC(=O)N(C(C)=O)c1ncc(-n2nc(-c3ccccc3)cc2-c2ccccc2)c(-c2ccccc2)n1 | > 10 | > 10 | > 10 µM | > 10 µM | > 10 | > 10 µM | > 10 | > 10 µM | 9.42 µM | > 10 | > 10 µM | – | – | – | – | – | – | – |
| O=[N+]([O-])C[C@@]12O[C@]3(O)C4C5CC(C6C5C3C61)C42 (some centres not stated) | > 100 | > 100 | – | > 100 µM | > 100 | > 100 µM | > 100 | > 100 µM | – | > 100 | > 100 µM | – | – | – | – | – | – | – |
| [N-]=[N+]=Nc1c([N+](=O)[O-])c(=O)n(-c2ccccc2)c2ccccc12 | > 100 | 56.3 | > 100 µM | – | 95.5 | 52.5 µM | > 100 | 60.7 µM | 83.2 µM | 64.5 | > 100 µM | – | – | – | – | – | – | – |
| O=C1c2ccccc2C(=O)c2c(NCC(O)CO)ccc(NCC(O)CO)c21 (configuration not stated) | > 100 | > 100 | > 100 µM | > 100 µM | – | 94.8 µM | > 100 | > 100 µM | > 100 µM | > 100 | > 100 µM | – | – | – | – | – | – | – |
| CO[C@@]12C[C@@H](C)C3=CCC(C)=C3CC1=C(C)C(=O)O2 | – | > 100 | > 100 µM | > 100 µM | > 100 | > 100 µM | – | > 100 µM | – | > 100 | > 100 µM | – | – | – | – | – | – | – |
| COc1cccc(C(=O)Oc2ccc(OS(=O)(=O)c3ccc(C)cc3)cc2)c1C#N | > 100 | > 100 | – | – | > 100 | > 100 µM | > 100 | > 100 µM | > 100 µM | > 100 | 96.6 µM | – | – | – | – | – | – | – |
| O=[N+]([O-])c1ccc2[nH]c(=S)[nH]c(=S)c2c1 | > 100 | > 100 | > 100 µM | – | > 100 | > 100 µM | > 100 | > 100 µM | > 100 µM | > 100 | > 100 µM | – | – | – | – | – | – | – |
| CCn1c(-c2ccccc2)cs/c1=N\C(P(=O)(O)O)P(=O)(O)O | > 100 | > 100 | > 100 µM | > 100 µM | > 100 | – | > 100 | > 100 µM | > 100 µM | > 100 | > 100 µM | – | – | – | – | – | – | – |
| Cc1c(C)c2c(c(N)c1C#N)C(=O)N(NC(=O)c1ccccc1)C2=O | – | > 100 | > 100 µM | > 100 µM | > 100 | > 100 µM | > 100 | – | > 100 µM | > 100 | > 100 µM | – | – | – | – | – | – | – |
| Cc1c2n(c(=O)[nH]c1=O)C1OC(CO)C(O2)C1O (configuration not stated) | > 100 | > 100 | – | – | > 100 | > 100 µM | – | > 100 µM | – | > 100 | > 100 µM | – | – | – | – | – | – | – |
| COc1cccc(CCNC(=O)Cc2ccccc2CCO)c1 | > 100 | > 100 | > 100 µM | > 100 µM | > 100 | > 100 µM | > 100 | > 100 µM | – | > 100 | > 100 µM | – | – | – | – | – | – | – |
| O=C1COc2cccnc2N1CCCCO | > 100 | > 100 | – | > 100 µM | > 100 | > 100 µM | > 100 | – | > 100 µM | > 100 | > 100 µM | – | – | – | – | – | – | – |
| C=CCCON(C(=O)OC(C)(C)C)C(C)(C)C | > 100 | > 100 | – | > 100 µM | > 100 | > 100 µM | > 100 | > 100 µM | > 100 µM | > 100 | > 100 µM | – | – | – | – | – | – | – |
| O=C(O)CCCc1nc2c(n1Cc1ccccc1)C(=O)c1ccccc1C2=O | – | > 100 | > 100 µM | – | 86.1 | 52.9 µM | > 100 | > 100 µM | 67.1 µM | > 100 | 80.1 µM | – | – | – | – | – | – | – |
| Cc1ccc(C2SCC(=O)N2c2ccc(-n3c(-c4ccccc4)nc4ccccc4c3=O)cc2)cc1 (configuration not stated) | 53.9 | > 100 | 63.1 µM | 54.7 µM | 44.7 | 51.3 µM | > 100 | > 100 µM | 80 µM | – | 69.8 µM | – | – | – | – | – | – | – |
| Cc1c2oc3c(C)ccc(C(=O)NC4C(=O)NC(C(C)C)C(=O)N5CCCC5C(=O)N(C)CC(=O)N(C)C(Cc5ccc(O)cc5)C(=O)OC4C)c3nc-2c(C(=O)NC2C(=O)NC(C(C)C)C(=O)N3CCCC3C(=O)N(C)CC(=O)N(C)C(Cc3ccc(O)cc3)C(=O)OC2C)c(N)c1=O (configuration not stated) (I: TVP[Sar][NMeY] / II: TVP[Sar][NMeY]; ester I:1-I:C, II:1-II:C; linker I:N-II:N via Actinocin(9to1); configuration not given here) | – | > 1 | 0.277 µM and 0.169 µM | 0.213 µM and 0.0733 µM | > 1 | 0.111 µM and 0.0245 µM | > 1 | 0.287 µM and 0.0772 µM | > 0.48 µM and 0.259 µM | > 1 | 0.54 µM and 0.446 µM | 0.104 µM and 0.0112 µM | 0.0438 µM and 0.0157 µM | 0.0687 µM and 0.0302 µM | 0.0493 µM and 0.0128 µM | 0.0273 µM and 0.00511 µM | 0.231 µM and 0.102 µM | 0.0936 µM and 0.0111 µM |
| O=C(/C=C/c1ccccc1)Oc1cccc(O)c1 | > 100 | > 100 | > 100 µM | > 100 µM | 34.3 | > 100 µM | > 100 | > 100 µM | > 100 µM | – | > 100 µM | – | – | – | – | – | – | – |
| NC(N)=NCCN1CC2CCC(CC2)C1 | > 100 | > 100 | > 100 µM | – | > 100 | > 100 µM | > 100 | > 100 µM | > 100 µM | > 100 | > 100 µM | – | – | – | – | – | – | – |
| COC(=O)/C=C(\C(=O)OC)C1C(=O)Oc2c(C)c(=O)c3ccccc3n21 (configuration not stated) | > 100 | > 100 | – | > 100 µM | > 100 | > 100 µM | > 100 | > 100 µM | > 100 µM | > 100 | > 100 µM | – | – | – | – | – | – | – |
| N#CC1C(=S)NC(c2ccccc2)=CC12CCCCC2 (configuration not stated) | – | > 100 | > 100 µM | 35.7 µM | – | 55.8 µM | 61.5 | 36.9 µM | > 100 µM | 44.6 | > 100 µM | – | – | – | – | – | – | – |
